{"source": "patent US5955508A", "about": "“Method for the enhancement of lymphocyte activity against opportunistic microbial pathogens” (priority 1996, dated 1999)", "key": {"T-cell counts": {"test_system": "T-cell counts", "settings": "AIDS patients; fenfluramine with phentermine; cited from earlier work"}, "[1]": {"test_system": "human percoll-fractionated peripheral blood lymphocytes mediated NK activity", "settings": "in vitro, cited from earlier work"}, "fungal infections": {"test_system": "fungal infections", "settings": "AIDS patients; cited from earlier work"}, "K562 human tumor cells": {"test_system": "K562 human tumor cells", "test": "Natural killer cell cytotoxicity of human PBMC against K562 tumor cells in vitro", "assay_type": "cell-based", "description": "Prior to conducting the above experiment, we examined the dose dependent effects of d-FEN on the ability of human PBMC obtained from five healthy volunteers (person Caucasians) to kill human K562 tumor cells in vitro. The potential cytotoxic enhancing effects of d-FEN and d-norFEN were compared using PBMC from two of the five human donors.\nFor assessment of immunological parameters of human PBMC, venous blood as aseptically drawn into sterile 10 ml tubes containing 20 U/ml preservative free heparin, diluted with an equal volume of Hank's Balanced Salt Solution (HBSS), layered over Lymphocyte Separation Medium (LSM, Bionetics, Kensington, Md.) and centrifuged at 1,000 ×g for 30 min. After centrifugation, the mononuclear cell layer was recovered from the interface and washed twice in HBSS and enumerated.\nThe K562 cell line originated from a chronic myelogenous leukemia patient and was obtained from Dr. T. Ellis (Director, Cellular Immunology Laboratory, LUMC). The K562 cells used for assessment of cytotoxic activity were maintained in long term cultures using Corning 25 cm^2 tissue culture flasks (Corning Glass Works, Corning, N.Y.) containing RPMI 1640 (Gibco Laboratories, Grand Island, N.Y.) supplemented with low LPS 10% fetal bovine serum (FBS; Gibco), 100 units/ml penicillin, 100 μg/ml streptomycin (Whittaker M. A. Bioproducts, Walkersville, Md.), 0.1 mM non-essential amino acids, and 2 mM L-glutamine (Gibco). This medium was used throughout, except where noted, and is referred to as \"culture medium\". The K562 cells were grown in suspension and were passaged three times per week by transfer of 10^6 K562 cells into a flask containing 10 ml of fresh culture medium. The K562 cells injected into the SCID mice were supplemented with fresh medium at a 1:3 dilution the day before administration. They were washed once in medium, pelleted by centrifugation at 500 ×g for 10 min., then resuspended at a concentration of 5×10^7. Subsequently, 0.2 ml (1×10^7 cells) of the cell suspension was injected (i.p.) into each SCID mouse. The K562 cells were administered to the animals four days after the injection of PBMC.\nThe K562 tumor cell lines maintained in vitro were washed once in culture medium, pelleted by centrifugation at 500×g for 10 min and resuspended in approximately 0.1 ml of culture medium. Subsequently, 100 μCi of [^51 Cr] (New England Nuclear, Boston, Mass.) was added to 1×10^5 cells in a final volume of 0.2 ml. The cells were incubated at 37° C. with 5% CO2 for 1 h with agitation every 10 min, then washed 3 times in HBSS, resuspended to 5×10^4 cells/ml in culture medium and 0.1 ml (5×10^3) aliquoted to each well of a 96 well round bottom assay plate (Corning Glass Works, Corning, N.Y.). Radiolabelled K562 was cultured for 4 h with lymphocytes at effector to target ratios ranging from 50:1 to 6:1. Following 4 h of culture the media was removed using a Skatron harvesting press (Skatron Inc., Sterling, Va.) and associated radioactivity determined. Maximum release was obtained by adding 0.05% Nonidet P-40 (Sigma Chemical Co., St. Louis, Mo.).\nThe results have been expressed as % cytotoxicity and calculated by the formula: % cytotoxicity=[(experimental DPM-minimum DPM)/(maximum DPM-minimum DPM)]×100.\nAll experimental means were calculated from triplicate values. Lytic units (LU) were calculated using a computer program written by David Coggins, FCRC, Frederick, Md."}, "[2]": {"settings": "mouse; cited from earlier work"}, "[3]": {"test": "Plasma d-FEN and d-norFEN levels and half-life in mice", "assay_type": "in vivo", "settings": "mouse; d-FEN p.o. in drinking water; sacrificed 11:00-13:00 h", "description": "Mice like rats are prandial drinkers during the dark period of the light-dark cycle. The animals were sacrificed between 11:00 and 13:00 h, 4-6 h after the end of the dark period."}}}
{"molecule": "CCNC(C)Cc1cccc(C(F)(F)F)c1", "note": "(racemic) [fenfluramine]", "values": [{"measurement": "T-cell counts in words", "setting": "T-cell counts", "result": "significant improvement of their T-cell counts"}]}
{"molecule": "NCCc1c[nH]c2ccc(O)cc12", "note": "[5-HT]", "values": [{"measurement": "effect on NK activity in words", "setting": "[1]; 5-HT dose dependent", "result": "stimulatory effects"}, {"measurement": "duration of NK stimulation", "setting": "[1]", "result": 16, "unit": "h"}]}
{"molecule": "C[C@@H]1[C@H](O)[C@@H](C)/C=C/C=C/C=C/C=C/C=C/C=C/C=C/[C@H](O[C@@H]2O[C@H](C)[C@@H](O)[C@H](N)[C@@H]2O)C[C@@H]2O[C@](O)(C[C@@H](O)C[C@@H](O)[C@H](O)CC[C@@H](O)C[C@@H](O)CC(=O)O[C@H]1C)C[C@H](O)[C@H]2C(=O)O", "note": "[amphotericin B]", "values": [{"measurement": "effect on fungal infections in words", "setting": "fungal infections", "result": "can suppress fungal infections, but for the first time appear to have no curative effect in AIDS patients"}]}
{"molecule": "C[C@H](N)Cc1cccc(C(F)(F)F)c1", "note": "[d-norFEN]", "values": [{"measurement": "percent increase in cytotoxicity", "setting": "K562 human tumor cells; 0.25 ng/ml, DONOR #1", "result": 29, "unit": "%"}, {"measurement": "percent increase in cytotoxicity", "setting": "K562 human tumor cells; 0.25 ng/ml, DONOR #2", "result": 19, "unit": "%"}, {"measurement": "percent increase in cytotoxicity", "setting": "K562 human tumor cells; 0.50 ng/ml, DONOR #1", "result": 24, "unit": "%"}, {"measurement": "percent increase in cytotoxicity", "setting": "K562 human tumor cells; 0.50 ng/ml, DONOR #2", "result": 28, "unit": "%"}, {"measurement": "percent increase in cytotoxicity", "setting": "K562 human tumor cells; 1.00 ng/ml, DONOR #1", "result": 11, "unit": "%"}, {"measurement": "percent increase in cytotoxicity", "setting": "K562 human tumor cells; 1.00 ng/ml, DONOR #2", "result": 13, "unit": "%"}, {"measurement": "d-FEN vs d-norFEN effect on cytotoxicity in words", "setting": "K562 human tumor cells; PBMC of two donors", "result": "virtually identical effects"}, {"measurement": "effect on capacity of human NK cells to kill K562, in words", "setting": "K562 human tumor cells; conclusion", "result": "augments the capacity of human NK cells to kill the human tumor cell line, K562"}, {"measurement": "t1/2", "setting": "[2]", "result": 6, "unit": "h"}, {"measurement": "plasma d-FEN and d-norFEN levels at sacrifice", "setting": "[3]", "result": "Neither d-FEN nor d-norFEN was detected"}]}
